Data reported in patent US7429482B2, “Screening tools for discovery of novel anabolic agents” (United States of America as represented by the Department …, priority 2005, dated 2008).

Legend:
human MAFbx promoter = assay: Human MAFbx promoter luciferase reporter assay in C2C12 / C2C12.AR cells; assay type: cell-based
From the text: The reporter genes pMAF3.1, pMAF2.4, pMAF948, pMAF400, and pMAF400-241 express firefly luciferase under the control of promoter regions of the human MAFbx gene and are described in Example 1. The rARC562G vector, encoding rat AR with a C562->G mutation in the first zinc binding module that disrupts binding of AR to DNA was described by Palvimo et al. (Mol Endocrinol 7: 1399-1407, 1993) pAR.4RKM (expressing AR with 4 R/K->M mutations in the nuclear localization sequence that is unable to enter the nucleus) and pAR.ABC (lacking the ligand binding domain) were described by Zhou et al. (J Biol Chem 269: 13115-13123, 1994). The pBabe.puro retroviral backbone described by Morgenstern and Land (Nucleic Acids Res 18: 3587-3596, 1990) was modified by introduction of a Not1 site. The ARE reporter gene expressing firefly luciferase under control of the MMTV hormone response element, and pSP72hAR-1, containing an insert of the full-length cDNA clone of the human AR, were provided by Dr. Diane Robins (University of Michigan). pRL-CMV expressing Renilla luciferase was from Promega (Madison, Wis.).
C2C12 cells (American Type Culture Collection, Manassas, Va.) were maintained in Dulbeco's modified Eagle's Medium (DMEM) containing 10% fetal bovine serum (FBS) and penicillin (100 U/ml)/streptomycin (100 μg/ml) (growth medium). Cells were incubated at 37° C. in humidified air containing 10% CO2. 293T cells (American Type Culture Collection) were maintained in growth medium as above. Transfection was achieved using Lipofectamine-Plus (Invitrogen, Carlsbad, Calif.) using 200 ng total DNA per well.
Cells were seeded into wells of 24-well plates (5×10^5 cells/well) then maintained overnight in DMEM with 10% CDS-FBS. Cells were co-transfected with the various reporter genes and pRL-CMV. Cells were incubated in the transfection mixture overnight, then covered with DMEM supplemented with 10% charcoal-dextran-stripped FBS (CDS-FBS) and either ethanol (EtOH) or hormones dissolved in EtOH. Cells were maintained for an additional 24 hours, at which time both firefly and renilla luciferase activity were determined using the Dual Luciferase Assay (Promega, Madison, Wis.) and a Berthold 96-well plate luminometer. Firefly luciferase activities were normalized relative to renilla luciferase. Ethanol concentrations were less than 0.1%.

MuRF1 = assay: Chronic denervation: MuRF1 mRNA in gastrocnemius (qPCR); assay type: in vivo, rat; conditions: for reduction of MuRF1 expression: denervated muscle
Description: Male Wistar rats weighing 200-250 gm (Taconic Farms, Germantown, N.Y.) were provided food and water ad libitum and were housed in a temperature and humidity controlled environment providing a 12:12 hour day-night cycle. For surgical procedures, animals were anesthetized with ketamine/xylazine. The left sciatic nerve was exposed by blunt dissection, and a 1 to 2 mm piece of this nerve was excised just below the level of the femoral head. A sham surgery was performed on the right hind limb in which the sciatic nerve was exposed but was not transected. Twenty eight days later, animals were anesthetized, and Alzet pumps were implanted subcutaneously on the back. […] Testosterone levels after replacement were approximately 15 nM, a high-normal range for rats of this age. Animals were sacrificed 3, 7 or 28 days after implantation of the miniosmotic pumps by inhalation of carbon dioxide. Gastrocnemius muscles were excised and weighed, then flash frozen on dry ice and stored at −80° C.
Total RNA was extracted from skeletal muscle (20 mg) by homogenization in guanidine thiocyanate using a Polytron followed by extraction of total RNA with phenol-chloroform as described by (Chomczynski and Sacchi, Anal Biochem 162: 156-159, 1987). Total RNA was further enriched using RNAeasy minicolumns (Qiagen, Valencia, Calif.). This procedure included digestion of contaminating DNA on the column with RNAse-free DNAse (Qiagen). Total RNA was eluted and quantified by absorbance at 260 nm. One μg of total RNA was used to prepare a cDNA library by reverse transcription (High Capacity cDNA Archive Kit, Applied Biosystems). Libraries were diluted 25-fold with water. Real time PCR was performed Taqman 2×PCR buffer (Applied Biosystems) using an Applied Biosystems 7500 thermocycler. Levels of gene expression in the denervated muscle were expressed as fold induction relative to muscle from the sham-denervated leg of animals administered vehicle. […] Fold-induction was determined using the 2^−ΔΔCt method, using expression of 18S RNA as the normalization control. […]

| SMILES | repression of pMAF3.1 reporter activity (human MAFbx promoter; C2C12.AR cells, 5 nM testosterone) | suppression of MAFbx reporter with 3′ deletion of 208 bases encoding the 5′ UTR (human MAFbx promoter; C2C12.AR cells, 500 nM) | repression of pMAF3.1 reporter activity (human MAFbx promoter; C2C12.AR cells, 500 nM testosterone) | repression of 5′ truncated MAFbx reporters (human MAFbx promoter; C2C12.AR cells, 500 nM, three 5′ truncations including pMAF400) | dexamethasone induced luciferase expression (pMAF3.1) (human MAFbx promoter; C2C12.AR cells, testosterone 5 nM) | dexamethasone induced luciferase expression (pMAF3.1) (human MAFbx promoter; C2C12.AR cells, testosterone 50 nM) | dexamethasone induced luciferase expression (pMAF3.1) (human MAFbx promoter; C2C12.AR cells, testosterone 500 nM) | suppression of reporter under control of 3.1 of the MAFbx upstream promoter (human MAFbx promoter; C2C12 muscle cells, 500 nM) | expression of MAFbx reporter (general statement) (human MAFbx promoter; cells transduced with the MAFbx reporter construct) | effect on activity of pMAF3.1 reporter (human MAFbx promoter; wild-type C2C12 cells, 5 to 500 nM) | repression of pMAF3.1 reporter (human MAFbx promoter; wild-type C2C12 co-transfected with AR defective in nuclear entry (4RKM), 500 nM) | repression of pMAF3.1 reporter (human MAFbx promoter; wild-type C2C12 co-transfected with AR lacking ligand binding domain (ABC), 500 nM) | repression of pMAF3.1 reporter (human MAFbx promoter; wild-type C2C12 co-transfected with DNA binding domain mutant AR (C562G), 500 nM) | pMAF3.1 reporter gene activity (human MAFbx promoter; wild-type C2C12 co-transfected with wild-type AR, 500 nM) | reduction of MuRF1 expression (MuRF1; 7-days administration) | reduction of MuRF1 expression (MuRF1; 28-days administration) | MuRF1 expression (MuRF1; muscle of sham-denervated hindlimbs) |
| --- | --- | --- | --- | --- | --- | --- | --- | --- | --- | --- | --- | --- | --- | --- | --- | --- | --- |
| C[C@]12CC[C@H]3[C@@H](CCC4=CC(=O)CC[C@@]43C)[C@@H]1CC[C@@H]2O [testosterone] | about 40% | abolished suppression | greater than 50% | apparent | partially inhibited | full suppression | suppressed below that of untreated cells | 40% | decreased | no effect | No repression | absent | repression was observed | significantly depressed |  |  |  |
| C[C@]12CC[C@H]3[C@@H](CCC4=CC(=O)CC[C@@H]43)[C@@H]1CC[C@@H]2O [nandrolone] |  |  |  |  |  |  |  |  |  |  |  |  |  |  | 31% | 37% | no effect |
